According to patent US5436254A, “Carbostyril derivatives” (Otsuka Pharmaceutical Company, Ltd., priority 1989, dated 1995):
pIC50: −log10 of the molar value.

Target: V1 receptor (Rattus norvegicus, UniProt P30560)
Test: biochemical
Type: binding
Method: Experiment 1: V1 receptor binding assay
Using rat liver plasma membrane preparations prepared according to Ichihara's method [cf: Akira Ichihara, J. Bio. Chem., 258 9283 (1983)], the plasma membrane (50000 dpm, 2×10^-10 M) of [H]^3 -Arg-vasopressin and a test compound (100 ng, 10^-7 -10^-4 M) are incubated at 37° C. for 10 minutes in 100 mM Tris-HCl buffer pH: 8.0 (250 μl) containing 5 mM MgCl2, 1 mM EDTA and 0.1% BSA. After incubation, the mixture is filtered three times using the glass filter (GF/F) so as to separate the membrane preparation combining with vasopressin and then washed with the buffer (5 ml). This glass filter is taken out and mixed with liquid scintillation cocktail. The amount of [H]^3 -vasopressin combining with the membrane is measured by liquid scintillation counter and the rate of the inhibitory effect of the test compound is estimated according to the following equation. [formula] C^1 : The amount of [H]^3 -vasopressin combining with the membrane in the presence of the test compound (known amount).
C^0 : The amount of [H]^3 -vasopressin combining with the membrane in the absence of the test compound.
B^1 : The amount of [H]^3 -vasopressin combining with the membrane in the presence of the excess amount of vasopressin (10^-6 M).

Chain of V1 receptor (P30560 whole entry): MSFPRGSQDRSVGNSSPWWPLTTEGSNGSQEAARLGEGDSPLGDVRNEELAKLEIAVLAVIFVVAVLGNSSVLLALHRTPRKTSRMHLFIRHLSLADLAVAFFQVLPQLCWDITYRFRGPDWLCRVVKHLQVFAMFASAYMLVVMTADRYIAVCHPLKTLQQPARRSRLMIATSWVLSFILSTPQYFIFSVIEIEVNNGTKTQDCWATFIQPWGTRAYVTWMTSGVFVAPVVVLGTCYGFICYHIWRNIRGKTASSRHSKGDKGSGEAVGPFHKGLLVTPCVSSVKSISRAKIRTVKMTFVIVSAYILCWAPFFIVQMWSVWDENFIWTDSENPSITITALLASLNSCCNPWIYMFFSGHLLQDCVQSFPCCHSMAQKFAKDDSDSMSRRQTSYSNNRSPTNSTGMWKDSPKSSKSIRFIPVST

Row | SMILES | pIC50
1 | O=C(c1ccc(OCCCCCCN2CCC(N3CCCCC3)CC2)cc1)N1CCC(N2C(=O)CCc3ccccc32)CC1 [Example 265, 1-(1-(4-[6-(4-(1-Piperidinyl)-1-piperidinyl)hexyloxy]benzoyl)-4-piperidinyl}-3,4-dihydrocarbostyril.dioxalate] | 7.72
2 | CN(CCCCCCOc1ccc(C(=O)N2CCC(N3C(=O)CCc4ccccc43)CC2)cc1)CCc1ccccn1 [Example 266, 1-{1-(4-[6-(N-(2-(2-Pyridyl)ethyl)-N-methylamino)hexyloxy]benzoyl)-4-piperidinyl}-3,4-dihydrocarbostyril] | 7.46
3 | COC1(CNCCCCCCOc2ccc(C(=O)N3CCC(N4C(=O)CCc5ccccc54)CC3)cc2)OCC(O)C(O)C1O (centres unmarked) [Example 267, 1-{1-(4-[6-(N-(2-Methoxy-3,4,5-trihydroxytetrahydropyran-2-yl)methylamino)hexyloxy]benzoyl)-4-piperidinyl}-3,4-dihydrocarbostyril] | 7.09
4 | CCN(CC)CCCCCCCOc1ccc(C(=O)N2CCC(N3C(=O)CCc4ccccc43)CC2)cc1 [Example 268, 1-{1-(4-[7-(Diethylamino)heptyloxy]benzoyl)-4-piperidinyl}-3,4-dihydrocarbostyril] | 7.57
5 | O=C(CCCCCOc1ccc(C(=O)N2CCC(N3C(=O)CCc4ccccc43)CC2)cc1)N1CCN(Cc2ccccc2)CC1 [Example 269, 1-{1-(4-[5-(4-Benzyl-1-piperazinylcarbonyl)pentyloxy]benzoyl)-4-piperidinyl}-3,4-dihydrocarbostyril] | 6.80
6 | O=C(CCCCCOc1ccc(C(=O)N2CCC(N3C(=O)CCc4ccccc43)CC2)cc1)N1CCNCC1 [Example 270, 1-{1-(4-[5-(1-Piperazinylcarbonyl)pentyloxy]benzoyl)-4-piperidinyl}-3,4-dihydrocarbostyril] | 7.36
7 | CC(=O)N1CCN(C(=O)CCCCCOc2ccc(C(=O)N3CCC(N4C(=O)CCc5ccccc54)CC3)cc2)CC1 [Example 271, 1-{1-(4-[5-(4-Acetyl-1-piperazinylcarbonyl)pentyloxy]benzoyl)-4-piperidinyl}-3,4-dihydrocarbostyril] | 7.38
8 | CN1CCN(C(=O)CCCCCOc2ccc(C(=O)N3CCC(N4C(=O)CCc5ccccc54)CC3)cc2)CC1 [Example 272, 1-{1-(4-[5-(4-Methyl-1-piperazinylcarbonyl)pentyloxy]benzoyl)-4-piperidinyl}-3,4-dihydrocarbostyril] | 7.42
9 | C=CCN1CCN(C(=O)CCCCCOc2ccc(C(=O)N3CCC(N4C(=O)CCc5ccccc54)CC3)cc2)CC1 [Example 273, 1-{1-(4-[5-(4-Allyl-1-piperazinylcarbonyl)pentyloxy]benzoyl)-4-piperidinyl}-3,4-dihydrocarbostyril] | 7.24
10 | O=C(O)C1CCN(C(=O)CCCCCOc2ccc(C(=O)N3CCC(N4C(=O)CCc5ccccc54)CC3)cc2)CC1 [Example 274, 1-{1-(4-[5-(4-Carboxy-1-piperidinylcabonyl)pentyloxy]benzoyl)-4-piperidinyl}-3,4-dihydrocarbostyril] | 6.31
11 | NC(=O)C1CCN(C(=O)CCCCCOc2ccc(C(=O)N3CCC(N4C(=O)CCc5ccccc54)CC3)cc2)CC1 [Example 275, 1-{1-(4-[5-(4-Carbamoyl-1-piperidinylcarbonyl)pentyloxy]benzoyl)-4-piperidinyl}-3,4-dihydrocarbostyril] | 7.34
12 | CN(C)C(=O)C1CCN(C(=O)CCCCCOc2ccc(C(=O)N3CCC(N4C(=O)CCc5ccccc54)CC3)cc2)CC1 [Example 276, 1-{1-(4-[5-(4-Dimethylaminocarbonyl-1-piperidinylcarbonyl)pentyloxy]benzoyl)-4-piperidinyl}-3,4-dihydrocarbostyril] | 6.96
13 | Cn1ccnc1SCCCCCOc1ccc(C(=O)N2CCC(N3C(=O)CCc4ccccc43)CC2)cc1 [Example 278, 1-{1-(4-[5-(1-Methyl-2-imidazolylthio)pentyloxy]benzoyl)-4-piperidinyl}-3,4-dihydrocarbostyril] | 6.96
14 | O=C(c1ccc(OCCCCCSc2ncccn2)cc1)N1CCC(N2C(=O)CCc3ccccc32)CC1 [Example 279, 1-{1-(4-[5-(2-Pyrimidylthio)pentyloxy]benzoyl)-4-piperidinyl}-3,4-dihydrocarbostyril] | 6.74
15 | O=C(c1ccc(OCCCCC[S+]([O-])c2ncccn2)cc1)N1CCC(N2C(=O)CCc3ccccc32)CC1 (centres unmarked) [Example 280, 1-{1-(4-[5-(2-Pyrimidylsufinyl)pentyloxy]benzoyl)-4-piperidinyl}-3,4-dihydrocarbostyril] | 7.06
16 | O=C(c1ccc(OCCCCCS(=O)(=O)c2ncccn2)cc1)N1CCC(N2C(=O)CCc3ccccc32)CC1 [Example 281, 1-(1-(4-[5-(2-Pyrimidylsulfonyl)pentyloxy]benzoyl)-4-piperidinyl}-3,4-dihydrocarbostyril] | 7.27
17 | Cn1ccnc1S(=O)(=O)CCCCCOc1ccc(C(=O)N2CCC(N3C(=O)CCc4ccccc43)CC2)cc1 [Example 282, 1-{1-(4-[5-(1-Methyl-2-imidazolylsulfonyl)pentyloxy)benzoyl)-4-piperidinyl}-3,4-dihydrocarbostyril] | 7.12
18 | O=C(c1ccc(OCCCCCSc2ccncc2)cc1)N1CCC(N2C(=O)CCc3ccccc32)CC1 [Example 283, 1-{1-(4-[5-(4-Pyridylthio)pentyloxy]benzoyl)-4-piperidinyl}-3,4-dihydrocarbostyril] | 6.21

Row | SMILES | pIC50
19 | Nc1ccc(SCCCCCOc2ccc(C(=O)N3CCC(N4C(=O)CCc5ccccc54)CC3)cc2)cc1 [Example 284, 1-{1-(4-[5-(4-Aminophenylthio)pentyloxy]benzoyl)-4-piperidinyl}-3,4-dihydrocarbostyril] | 6.40
20 | O=C(c1ccc(OCCCCCS(=O)(=O)c2ccc([N+](=O)[O-])cc2)cc1)N1CCC(N2C(=O)CCc3ccccc32)CC1 [Example 285, 1-{1-(4-[5-(4-Nitrophenylsulfonyl)pentyloxy]benzoyl)-4-piperidinyl}-3,4-dihydrocarbostyril] | 6.64
21 | Nc1ccc(S(=O)(=O)CCCCCOc2ccc(C(=O)N3CCC(N4C(=O)CCc5ccccc54)CC3)cc2)cc1 [Example 286, 1-{1-(4-[5-(4-Aminophenylsulfonyl)pentyloxy]benzoyl)-4-piperidinyl}-3,4-dihydrocarbostyril] | 6.82
22 | O=C(c1ccc(OCCCCCS(=O)(=O)c2ccccn2)cc1)N1CCC(N2C(=O)CCc3ccccc32)CC1 [Example 287, 1-{1-(4-[5-(2-Pyridylsulfonyl)pentyloxy]benzoyl)-4-piperidinyl}-3,4-dihydrocarbostyril] | 7.00
23 | O=C(c1ccc(OCCCCCS(=O)(=O)c2cc[n+]([O-])cc2)cc1)N1CCC(N2C(=O)CCc3ccccc32)CC1 [Example 288, 1-{1-(4-[5-(Pyridine-N-oxide-4-ylsulfonyl)pentyloxy]benzoyl)-4-piperidinyl}-3,4-dihydrocarbostyril] | 7.32
24 | CC(=O)Nc1ccc(S(=O)(=O)CCCCCOc2ccc(C(=O)N3CCC(N4C(=O)CCc5ccccc54)CC3)cc2)cc1 [Example 289, 1-{1-(4-[5-(4-Acetylaminophenylsulfonyl)pentyloxy]benzoyl)-4-piperidinyl}-3,4-dihydrocarbostyril] | 7.00
25 | O=C(c1ccc(OCCCCCN2CCCC2)cc1OCCCCCN1CCCC1)N1CCC(N2C(=O)CCc3ccccc32)CC1 [Example 291] | 7.01
26 | CCN(CC)CCCCCOc1ccc(C(=O)N2CCC(N3C(=O)CCc4ccccc43)CC2)c(OCCCCCN(CC)CC)c1 [Example 292, 1-{1-[2,4-Di(5-diethylaminopentyloxy]benzoyl)-4-piperidinyl}-3,4-dihydrocarbostyril] | 7.11
27 | COc1cc(OCCCCC(=O)N2CCSCC2)ccc1C(=O)N1CCC(N2C(=O)CCc3ccccc32)CC1 [Example 293, 1-{1-[2-Methoxy-4-(4-thiomorpholinocarbonylbutyloxy)benzoyl]-4-piperidinyl}-3,4-dihydrocarbostyril] | 6.66
28 | COc1cc(OCCCCC(N)=O)ccc1C(=O)N1CCC(N2C(=O)CCc3ccccc32)CC1 [Example 294, 1-{1-[2-Methoxy-4-(4-carbamoylbutoxy)benzoyl]-4-piperidinyl}-3,4-dihydrocarbostyril] | 6.77
29 | COc1cc(OCCCCC(=O)N2CC[S+]([O-])CC2)ccc1C(=O)N1CCC(N2C(=O)CCc3ccccc32)CC1 [Example 295, 1-{1-(2-Methoxy-4-[4-(4-oxothiomorpholino)carbonylbutyloxy)benzoyl]-4-piperidinyl}-3,4-dihydrocarbostyril] | 7.11
30 | COc1cc(OCCCCC(=O)N2CCS(=O)(=O)CC2)ccc1C(=O)N1CCC(N2C(=O)CCc3ccccc32)CC1 [Example 296, 1-{1-(2-Methoxy-4-[4-(4,4-dioxothiomorpholino)carbonylbutyloxy]benzoyl]-4-piperidinyl}-3,4-dihydrocarbostyril] | 7.14
31 | COc1cccc(CNCC(O)CCCCOc2ccc(C(=O)N3CCC(N4C(=O)CCc5ccccc54)CC3)cc2)c1 (centres unmarked) [Example 298, 1-{1-(4-[5-Hydroxy-6-(3-methoxybenzylamino)hexyloxy]benzoyl)-4-piperidinyl}-3,4-dihydrocarbostyril] | 7.19
32 | COc1ccc(CNCC(O)CCCCOc2ccc(C(=O)N3CCC(N4C(=O)CCc5ccccc54)CC3)cc2)cc1OC (centres unmarked) [Example 299, 1-{1-(4-[5-Hydroxy-6-(3,4-dimethoxybenzylamino)hexyloxy]benzoyl)-4-piperidinyl}-3,4-dihydrocarbostyril.oxalate] | 7.19
33 | CN(CCc1ccccn1)CC(O)CCCCOc1ccc(C(=O)N2CCC(N3C(=O)CCc4ccccc43)CC2)cc1 (centres unmarked) [Example 300, 1-{1-(4-[5-Hydroxy-6-(N-methyl-N-(2-(2-pyridyl)ethyl)amino)hexyloxy]benzoyl]-4-piperidinyl}-3,4-dihydrocarbostyril] | 7.47
34 | CC[N+](C)(CC)CC(CCCCOc1ccc(C(=O)N2CCC(N3C(=O)CCc4ccccc43)CC2)cc1)OC (centres unmarked) [Example 301, 1-{1-[4-(5-Methoxy-6-diethylmethylammoniumhexyloxy)benzoyl]-4-piperidinyl}-3,4-dihydrocarbostyril.iodine] | 7.33
35 | NC(=O)[C@@H]1CCCN1CC(O)CCCCOc1ccc(C(=O)N2CCC(N3C(=O)CCc4ccccc43)CC2)cc1 (some centres unmarked) [Example 302] | 7.06
